# In PubChem BioAssay (NCI):
# “And” between values parts separate entries of the source, which are not always exact repeats. Identical values can stand only once.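 Dose response: 5 concentrations. Exposure: 48 h. Format: 96-well plates. Endpoint: linear interpolation; highest concentration if not reached. Abbreviation: GI50, concentration required for 50% inhibition of growth. TGI: total growth inhibition.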
# How the values were obtained:
# Assay in all cases: NCI-60 cell line screen, 48 h
# SF-268 CNS = tested on: SF-268 CNS
# HCT-15 colon = tested on: HCT-15 colon
# HCC-2998 colon = tested on: HCC-2998 colon
# RPMI-8226 leukemia = tested on: RPMI-8226 leukemia
# MOLT-4 leukemia = tested on: MOLT-4 leukemia
# OVCAR-4 ovarian = tested on: OVCAR-4 ovarian
# TK-10 renal = tested on: TK-10 renal
# SK-MEL-5 melanoma = tested on: SK-MEL-5 melanoma
# NCI/ADR-RES ovarian = tested on: NCI/ADR-RES ovarian
# SF-295 CNS = tested on: SF-295 CNS
Compound,GI50 (SF-268 CNS),TGI (SF-268 CNS),GI50 (HCT-15 colon),TGI (HCT-15 colon),GI50 (HCC-2998 colon) [µM],TGI (HCC-2998 colon),GI50 (RPMI-8226 leukemia),TGI (RPMI-8226 leukemia),GI50 (MOLT-4 leukemia) [µM],TGI (MOLT-4 leukemia) [µM],GI50 (OVCAR-4 ovarian),TGI (OVCAR-4 ovarian),GI50 (TK-10 renal),TGI (TK-10 renal),GI50 (SK-MEL-5 melanoma),TGI (SK-MEL-5 melanoma),GI50 (NCI/ADR-RES ovarian),TGI (NCI/ADR-RES ovarian),GI50 (SF-295 CNS),TGI (SF-295 CNS)
O=C(Nc1ccc(-c2ccccc2)cc1)C1CCN(S(=O)(=O)c2ccccc2Cl)CC1,39 µM,> 100 µM,77.4 µM,> 100 µM,59.2,> 100 µM,42 µM,> 100 µM,> 100,> 100,22.3 µM,> 100 µM,20.6 µM,60.3 µM,69.3 µM,> 100 µM,37.1 µM,> 100 µM,24.4 µM,> 100 µM
C[C@]12CC[C@H](O)C[C@H]1CC[C@@H]1[C@@H]2CC[C@]2(C)[C@@H](C3=CC(=O)OC3)CC[C@]12O,,0.226 µM,,0.316 µM,,0.675 µM,,0.558 µM,,0.0537,0.0389 µM,0.226 µM,,1.59 µM,,0.205 µM,,0.573 µM,0.0292 µM,0.0959 µM
COc1cc2c(c(OC)n1)[C@]1(O)[C@H](O)[C@H](CN(C)C)[C@@H](c3ccccc3)[C@]1(c1ccc(C#N)cc1)O2,0.0249 µM and 0.0148 µM,2.02 µM and 1.85 µM,0.0243 µM and 0.0197 µM,3.65 µM and 3.44 µM,< 0.01,0.564 µM and 0.81 µM,0.0151 µM and < 0.01 µM,0.299 µM and 0.15 µM,< 0.01,,0.0371 µM and 0.0251 µM,3.72 µM and 5.27 µM,0.0543 µM and 0.0672 µM,2.9 µM and 6.22 µM,0.0206 µM and 0.0196 µM,0.0676 µM and 0.556 µM,0.0546 µM and 0.071 µM,3.89 µM and 2.93 µM,0.0212 µM and 0.0231 µM,0.811 µM and 1.84 µM
CCc1ccccc1NC(=O)c1sc2nc3c(cc2c1N)C(=O)CCC3,11.9 µM,> 100 µM,0.406 µM,> 100 µM,1.67,> 100 µM,0.782 µM,> 30.9 µM,5.29,> 100,1.54 µM,> 100 µM,23.2 µM,> 100 µM,0.329 µM,> 100 µM,0.433 µM,41.1 µM,0.283 µM,> 88 µM
O=C(/C=C/c1cc(CN2CCOCC2)c(O)c2ncccc12)c1cc(CN2CCOCC2)c(O)c2ncccc12,0.0469 µM,> 100 µM,0.0236 µM,> 100 µM,0.0506,> 100 µM,0.0222 µM,> 100 µM,0.0529,> 100,0.0804 µM,> 100 µM,0.0318 µM,> 100 µM,0.0237 µM,0.0607 µM,0.091 µM,> 100 µM,0.0529 µM,> 36.4 µM
NC(CS/C(Cl)=C/Cl)C(=O)O (centres undefined),> 76.5 µM,> 100 µM,28.7 µM,> 100 µM,68.8,> 100 µM,12.5 µM,74.5 µM,41.9,> 100,38.3 µM,> 100 µM,> 100 µM,> 100 µM,3.11 µM,12.9 µM,31.8 µM,> 100 µM,3.17 µM,12.3 µM
O=C(CSC(c1ccccc1)c1ccccc1)N/N=C/c1ccc(Cl)cc1Cl,36.8 µM,> 100 µM,37.6 µM,> 100 µM,26.9,71 µM,15.6 µM,41.8 µM,19.6,68.1,38.8 µM,> 100 µM,26 µM,72 µM,18.1 µM,32.7 µM,35.3 µM,> 100 µM,33.6 µM,90.8 µM
Cc1cc[c-]cc1.Fc1c[c-]c(-c2ccccn2)c(F)c1.[Pt+2].c1ccc(P(C[PH+](c2ccccc2)c2ccccc2)c2ccccc2)cc1,2.9 µM,13.5 µM,3.21 µM,12.6 µM,2.96,12.1 µM,0.719 µM,4.38 µM,3.35,12.2,2.17 µM,9.4 µM,2.93 µM,14.8 µM,1.66 µM,3.05 µM,13.9 µM,48.2 µM,2.56 µM,10.2 µM
Nc1nc(SN=Nc2ccc(S(N)(=O)=O)cc2)c2[nH]cnc2n1,0.563 µM,> 100 µM,0.563 µM,> 100 µM,0.508,> 100 µM,0.283 µM,3.33 µM,0.32,6.93,0.581 µM,> 51.1 µM,0.448 µM,23.6 µM,1.26 µM,5.97 µM,0.455 µM,> 100 µM,0.363 µM,> 100 µM
CC(=O)/C=C/c1ccc(C#Cc2ccccc2)s1,17.4 µM,48.9 µM,15.6 µM,29 µM,14.7,27.8 µM,20.7 µM,38 µM,,,13.1 µM,28.6 µM,16.8 µM,32.9 µM,11.1 µM,23.1 µM,15.8 µM,33.9 µM,19.1 µM,42.7 µM
O=C(Nc1ccc(-n2cc(-c3ccncc3)c(-c3ccc(Cl)c(O)c3)n2)cc1)Nc1ccc(Cl)c(C(F)(F)F)c1,1.65 µM,3.87 µM,1.31 µM,2.95 µM,1.78,3.25 µM,,,1.14,6.77,0.639 µM,6.12 µM,3.64 µM,15.1 µM,1.53 µM,2.95 µM,1.88 µM,4.83 µM,1.26 µM,2.86 µM
COc1ccc2c(O)cc3c(c2c1)[C@H](CCl)CN3C(=O)c1cc2cc(NC(=O)CCN3CCOCC3)ccc2[se]1,< 0.001 µM,0.0946 µM,< 0.001 µM,,< 0.001,0.00715 µM,0.00149 µM,0.0263 µM,< 0.001,> 3.34,< 0.001 µM,0.783 µM,< 0.001 µM,,< 0.001 µM,< 0.001 µM,< 0.001 µM,,< 0.001 µM,< 0.001 µM
CN(CCCNC(=O)Cc1ccc2ccc3cccc4ccc1c2c34)CCCNc1cc(-c2ccc3ccccc3c2)nc2ccccc12,1.43 µM,2.91 µM,1.52 µM,2.94 µM,1.48,2.98 µM,1.22 µM,4.11 µM,1.19,2.57,1.46 µM,2.78 µM,1.47 µM,3.02 µM,1.64 µM,3.01 µM,1.49 µM,2.96 µM,,
N=C(N)SCc1cccc(-c2nc3ccccc3c(=O)o2)c1,,> 100 µM,,> 100 µM,,> 100 µM,,> 100 µM,,,,> 100 µM,,> 100 µM,,> 100 µM,,> 100 µM,,> 100 µM
COc1cc(C2=C(c3cn(C)c4ccccc34)COC2=O)cc(OC)c1OC,0.802 µM,7.41 µM,0.0416 µM,2.28 µM,0.429,5.2 µM,0.109 µM,1.95 µM,0.055,> 28.2,1.27 µM,> 52.6 µM,0.569 µM,5.61 µM,0.0773 µM,1.4 µM,0.0464 µM,2.07 µM,,
CC(C)OC(=O)NNc1cc(Cl)ccc1Cl,,> 100 µM,,> 100 µM,,> 100 µM,,> 100 µM,,> 100,,,,> 100 µM,,> 100 µM,,> 100 µM,,> 100 µM
Cc1cc(C2CC(O)C(CO)O2)cc2c(=O)[nH]c(N)nc12 (centres undefined),> 100 µM,> 100 µM,> 100 µM,> 100 µM,> 100,> 100 µM,> 100 µM,> 100 µM,> 100,> 100,> 100 µM,> 100 µM,,,> 100 µM,> 100 µM,> 100 µM,> 100 µM,> 100 µM,> 100 µM
Cc1cc(N/N=C/c2nc(-c3ccc(Br)cc3)oc2C)c2cc(Br)ccc2n1,6.89 µM,46.2 µM,2.88 µM,10.2 µM,7.43,20.8 µM,2.37 µM,6.39 µM,2.65,> 100,,,1.97 µM,3.93 µM,13.4 µM,26.1 µM,2.71 µM,9.03 µM,17.3 µM,32.6 µM
CCn1c(CO)nn(-c2cc(O[C@@H](C)C(F)(F)F)c(C(=O)Nc3c(F)cccc3Cl)cc2F)c1=O,0.196 µM,> 100 µM,< 0.01 µM,> 100 µM,< 0.01,> 100 µM,< 0.01 µM,> 62.2 µM,< 0.01,> 100,,> 100 µM,,,< 0.0152 µM,> 39.1 µM,< 0.0245 µM,> 93.5 µM,< 0.01 µM,> 100 µM
O=C(COc1ccc(/C=C2\CSc3ccccc3C2=O)cc1)Nc1nccs1,3.61 µM,13.6 µM,4.03 µM,14.7 µM,4.03,17.1 µM,2.13 µM,6.7 µM,,,18.9 µM,72.3 µM,10.6 µM,27.7 µM,11.5 µM,23.6 µM,21.4 µM,66.5 µM,11.8 µM,25.6 µM
